Experimental data reported in patent US8680076B2, “Methods of treatment, improvement and prevention using haloaryl substituted aminopurines” (Signal Pharmaceuticals, LLC, priority 2010, dated 2014).
Counter-ions that a name gives are not always drawn.

Key:
Format in all cases: in vivo
Tsk-1 mice = experiment: Tight skin-1 (Tsk-1) mouse model of systemic sclerosis; settings: 50 mg/kg/day IP, 6 weeks
Method: The antifibrotic effects of the JNK inhibitor Compound JNKi-1 were tested in a murine tight skin-1 (Tsk-1) model of systemic sclerosis. In this model, a dominant mutation in the fibrillin 1 gene (Fbn1^Tsk+/−) leads to a systemic sclerosis-like disease with inflammatory infiltrates and massive fibrosis of the skin (Akhmetshina A, Venalis P, Dees C, Busch N, Zwerina J, Schett G, et al., Treatment with imatinib prevents fibrosis in different preclinical models of systemic sclerosis and induces regression of established fibrosis, Arthritis Rheum. 2009; 60(1):219-24).
Male and female TSK-1 mice were used. Mice were fed a standard diet with water ad libitum. The room temperature was kept constant at 22° C. with a humidity of 60%.
Compound JNKi-1 was dissolved in 0.5% carboxymethylcellulose (CMC)/0.25% Tween 80 in water. As vehicle control a solution of 0.5% CMC/0.25% Tween 80 in water was used. Imatinib mesylate was dissolved in 0.9% NaCl at a concentration of 50 mg/kg/day in a total volume of 100 μL.
Groups of Tsk-1 mice (n=4/sex/group) were assigned to one of five treatment groups: • Untreated wildtype (Fbn1^Tsk−/−) group received 0.5% CMC/0.25% Tween 80 in water orally (PO) twice daily (BID). • Untreated Fbn1Tsk+/− mice received 0.5% CMC/0.25% Tween 80 in water orally BID. • Compound JNKi-1-treated Fbn1^Tsk+/− received 50 mg/kg orally BID. • Compound JNKi-1-treated Fbn1^Tsk+/− received 150 mg/kg orally BID. • Imatinib mesylate-treated Fbn1^Tsk+/− group received 50 mg/kg/day administered intraperitoneally (IP).
Treatments with Compound JNKi-1 and control compound were started at Week 4. After 6 weeks of treatment, mice were sacrificed, and the antifibrotic effects from each treatment were analyzed.
Antifibrotic effects were determined by measuring the dermal thickness and quantifying the numbers of myofibroblasts in the lesional skin. Dermal thickness was determined by measuring the distance from the epidermal/dermal border to the dermal/subdermal border in H & E-stained sections at four different sites. The number of myofibroblasts was quantified by staining for alpha smooth muscle actin (α-SMA) in paraffin-embedded sections. Data are expressed as mean±standard error of the mean (SEM). SPSS17.0 software and the Mann-Whitney-U-test were used for statistical analyses. A p-value of less than 0.05 was considered statistically significant.

CD-IGS rats = experiment: Rat model of excisional wound healing; settings: 0.5 mg/kg qd orally
Method: Male CD-IGS rats (Strain code 001; n=32-52 per experiment) were obtained from Charles River Laboratories at a body weight of 175-195 g. Rats were housed in regular shoebox cages and allowed to become acclimated for a minimum of 1 week. Rats were fed Harlan Teklad (No. 7001) 4% mouse/rat diet and water ad libitum and were maintained on a 12-hour light/dark cycle.
Suspensions of Compound JNKi-1 were prepared in aqueous 0.5% CMC and 0.25% Tween-80. The formulations were homogenized using a TEFLON® pestle and mortar (Potter-Elvehjem tissue grinder). Vehicle (aqueous solution of 0.5% carboxymethylcellulose, and 0.25% Tween-80) and test article compounds were dosed at a volume of 5 mL/kg. Groups of rats (n=4-8/group) were dosed orally with vehicle, Dexamethasone (0.5 mg/kg) or Compound JNKi-1 (10 mg/kg, 30 mg/kg or 60 mg/kg) daily throughout the study starting 4 days prior to the procedure and continuing for up to […]. Compound JNKi-1 treated groups and the respective vehicle control group were dosed twice daily (bid) with an 8 hr separation between the doses. Dexamethasone treated animals and the respective vehicle control group were dosed once daily (qd) for the duration of the study.
Rats were anesthetized by inhaled isoflurane and the dorsal area was shaved and swabbed with 70% alcohol. Two points were marked 5.5 and 8.5 cm from the base of the skull along the midline. Four further points were marked 1 cm at either side of the midline, two at each of the marked points. These delineated the centers of four excisional wounds. The biopsy punch (6 mm diameter) was aligned vertically over the center of a mark and the epidermis, dermis and panniculus carnosus pierced by applying pressure and twisting at the same time. The skin plug was then removed. This was repeated for the remaining wounds (FIG. 15). The animal was then allowed to recover. All animals were housed singly during the experiment. Rats were monitored twice a day for the first 24 hours following the procedure and then daily until the end of the study. Body weights were recorded two or three times per week. Animals were sacrificed via CO2 asphyxiation at various time-points (day 1, 5, 10 or 14) following wounding.
Each wound size was measured using an electronic digital caliper and the percent of wound remaining open was calculated relative to the initial wound size recorded on day 0 (day of wounding procedure). Four values were averaged for each animal (four wounds on each rat). Measurements were taken at different time-points throughout the study.
Wounds and 2 mm of surrounding tissue were excised using an 8 mm biopsy punch. Wounds were harvested on days 1, 5, 10 and 14 following the procedure. Tissues were fixed in neutral buffered formalin for 3 h then transferred to 100% ethanol. Tissues were paraffin-embedded and four μm cross sections were cut and mounted on poly-lysine slides and stored in slide boxes at room temperature.
One slide for each specimen was stained for H&E to assess granulation-tissue formation and re-epithelialization of the wound gap.
Samples collected on day 10 and 14 were stained with Trichrome Stain (Masson) Kit (Sigma, HT15) to evaluate collagen deposition and remodeling.
Tissue sections were deparaffinized and hydrated to deionized (DI) water. Sections were incubated in preheated Bouin' Solution (Sigma, HT10-132) at 56° C. overnight and then thoroughly rinsed in tap water. Sections were stained in Weigert's Iron Hematoxylin solution (Sigma, HT10-79) for 15 min, washed, and counterstained with Biebrich Scarlet Acid Fuchsin solution. After washing, sections were incubated with Phosphotungstic-Phosphomolybdic acid solution for 15 min and then stained with Aniline Blue solution. Sections were dehydrated and cleared in xylene.
Wound healing was evaluated on day 10 and day 14 after the procedure. H&E sections were scored for re-epithelialization using the following criteria: […]

[1] = system: DBA/2J mice, bleomycin-induced skin fibrosis; experiment: Bleomycin-induced dermal fibrosis mouse model (preventive treatment); settings: 50 mg/kg/day IP, mean±SEM
Method: The selective JNK inhibitor Compound JNKi-1 was tested in a bleomycin-induced dermal fibrosis mouse model, which is considered to represent the early and inflammatory stages of systemic sclerosis (Akhmetshina A, Venalis P, Dees C, Busch N, Zwerina J, Schett G, Distler O, Distler J H, Treatment with imatinib prevents fibrosis in different preclinical models of systemic sclerosis and induces regression of established fibrosis, Arthritis Rheum. 2009; 60(1):219-24). […] In animal models it will similarly induce injury and fibrosis at the site of delivery.
Male and female DBA/2J mice were used. Mice were fed a standard diet with water ad libitum. The room temperature was kept constant at 22° C. with a humidity of 60%.
Compound JNKi-1 was dissolved in 0.5% carboxymethylcellulose (CMC)/0.25% Tween 80 in water. Bleomycin was dissolved in 0.9% sodium chloride (NaCl) at a concentration of 0.5 mg/mL in a total volume of 100 μL. The positive control compound Imatinib mesylate was dissolved in 0.9% NaCl at a concentration of 50 mg/kg/day in a total volume of 100 μL.
Two different dose levels of the JNK-inhibitor Compound JNKi-1 (50 mg/kg and 150 mg/kg, administered twice daily) were used to analyze the anti-fibrotic activity in a mouse model of bleomycin-induced skin fibrosis. […] DBA/2J mice (n=5/sex/group) were assigned to one of five treatment groups: • Control group: 0.5% CMC/0.25% Tween 80 in water orally (PO) twice daily (BID) and subcutaneous injections of 100 μL 0.9% NaCl. • Untreated bleomycin group: intradermal injection of bleomycin and 0.5% CMC/0.25% Tween 80 in water orally BID. • 50 mg/kg Compound JNKi-1: intradermal injection of bleomycin and Compound JNKi-1 orally BID. • 150 mg/kg Compound JNKi-1: intradermal injection of bleomycin and Compound JNKi-1 orally BID. • Positive control group: intradermal injection of bleomycin and imatinib 50 mg/kg/day administered intraperitoneally (IP).
Localized dermal fibrosis was induced by injection of bleomycin every other day for 3 weeks in defined areas of the upper back. Compound JNKi-1 or imatinib was administrated starting from the first dose of bleomycin.
The dermal thickness was determined by staining with hematoxylin and eosin (H & E). The activated fibroblasts (myofibroblasts) at the fibrotic lesions were quantified by immunohistochemistry (IHC) for alpha smooth muscle actin (α-SMA). Collagen concentration in lesional skin was analyzed by hydroxyproline assay. Data are expressed as mean±standard error of the mean (SEM). SPSS17.0 software and the Mann-Whitney-U-test were used for statistical analyses. A p-value of less than 0.05 was considered statistically significant.

Cc1ccc(NC(=O)c2ccc(CN3CCN(C)CC3)cc2)cc1Nc1nccc(-c2cccnc2)n1 [imatinib mesylate, reference compound] was tested, and the “decrease of number of myofibroblasts” value (Tsk-1 mice) was 99%±15% and the “decrease of hypodermal thickness” value (Tsk-1 mice; compared to untreated mice) was 71%±7%.

C[C@@H]1C[C@H]2[C@@H]3CCC4=CC(=O)C=C[C@]4(C)[C@@]3(F)[C@@H](O)C[C@]2(C)[C@@]1(O)C(=O)CO [Dexamethasone, reference compound] was tested, and the “loss of initial body weight mass” value (CD-IGS rats) was “about 10%” and the “wound gap remaining open at day 10 post wounding” value (CD-IGS rats) was “approximately 70%”.

With Cc1ccc(NC(=O)c2ccc(CN3CCN(C)CC3)cc2)cc1Nc1nccc(-c2cccnc2)n1 [imatinib, reference compound] the “reduction in dermal thickening” value ([1]; 3 weeks bleomycin) was 46%±5% and the “decrease of myofibroblast count” value [1] was 51%±10%.
